Columns and labels:
MCF7 = test: Concentration required to inhibit growth of human breast (MCF-7) cell line; assay type: functional
NCI/ADR-RES = test: in vitro inhibition of MCF-7/ADR (human breast cancer) cell growth.; assay type: functional
ACHN = test: Concentration required to inhibit growth of human renal (ACHN) cell line; assay type: functional
UACC-62 = test: Concentration required to inhibit growth of human melanoma (UACC62) cell line; assay type: functional
SW-620 = test: Concentration required to inhibit growth of human colon (SW620) cell line; assay type: functional
OVCAR-8 = test: Concentration required to inhibit growth of human ovarian (OVCAR8) cell line; assay type: functional
DU-145 = test: In vitro inhibition of DU145 (human prostate cancer) cell growth.; assay type: functional
U-251 = test: Concentration required to inhibit growth of human CNS (U251) cell line; assay type: functional
PC-3 = test: Concentration required to inhibit growth of human prostate (PC3) cell line; assay type: functional
SK-OV-3 = test: Concentration required to inhibit growth of human ovarian (SK-OV3) cell line; assay type: functional
HT-29 = test: Concentration required to inhibit growth of human colon (HT-29) cell line; assay type: functional
NCI-H522 (Homo sapiens) = test: Concentration required to inhibit growth of human lung (H522) cell line
Mus musculus [1] = test: Anticancer activity after implantation of HT-29 human adeno carcinoma xenograft in mice at a dose of 300 mg/kg; 0/6; assay type: functional
Mus musculus [2] = test: (§1) Anticancer activity after implantation of HT-29 human adeno carcinoma xenograft in mice at a dose of 300 mg/kg; assay type: functional
Mus musculus [3] = test: as §1; assay type: functional; design: reference not given here

Structure (SMILES)	GI50 (MCF7)	GI50 (ACHN)	GI50 (SW-620)	GI50 (OVCAR-8)	GI50 (DU-145)	GI50 (U-251)	GI50 (PC-3)	GI50 (SK-OV-3)	GI50 (HT-29)	GI50 (NCI-H522 (Homo sapiens))	GI50 (NCI/ADR-RES)	GI50 (UACC-62)	Mortality (Mus musculus [1])	inhibition in vivo at 300 mg/kg (Mus musculus [2])	Mean body weight (Mus musculus [3])
O=S(=O)(/C=C/c1ccc(Cl)c(Cl)c1)Cc1ccc(Nc2ncnc3ccc(Br)cc23)cc1	14 µM	–	5 µM	0.1 µM	17 µM	> 100 µM	11 µM	–	27 µM	> 100 µM	–	30 µM	–	–	–
O=S(=O)(/C=C/c1ccc(C(F)(F)F)cc1F)Cc1ccc(Nc2ncnc3ccccc23)cc1	100 µM	100 µM	100 µM	100 µM	–	100 µM	100 µM	39 µM	100 µM	100 µM	100 µM	100 µM	–	–	–
O=S(=O)(/C=C/c1ccc(O)cc1)Cc1ccc(Nc2ncnc3ccc(Br)cc23)cc1	32 µM	–	94 µM	> 100 µM	3 µM	> 100 µM	42 µM	–	9 µM	27 µM	–	28 µM	–	–	–
O=S(=O)(/C=C/c1ccc(Cl)cc1)Cc1ccc(Nc2ncnc3ccccc23)cc1	52 µM	> 100 µM	77 µM	> 100 µM	> 100 µM	49 µM	43 µM	54 µM	73 µM	46 µM	> 100 µM	13 µM	–	–	–
O=S(=O)(/C=C/c1ccc(F)cc1Cl)Cc1ccc(Nc2ncnc3ccccc23)cc1	21 µM	73 µM	100 µM	100 µM	–	100 µM	100 µM	44 µM	100 µM	100 µM	66 µM	100 µM	–	–	–
O=S(=O)(/C=C/c1ccc(Br)cc1)Cc1ccc(Nc2ncnc3ccc(Br)cc23)cc1	5 µM	–	> 100 µM	2 µM	3 µM	11 µM	34 µM	–	10 µM	20 µM	–	> 100 µM	–	–	–
O=S(=O)(/C=C/c1ccc(Cl)c(Cl)c1)Cc1ccc(Nc2ncnc3ccccc23)cc1	28 µM	28 µM	41 µM	14 µM	–	11 µM	35 µM	22 µM	11 µM	32 µM	22 µM	21 µM	–	–	–
O=S(=O)(/C=C/c1ccccc1)Cc1ccc(Nc2ncnc3ccccc23)cc1	74 µM	58 µM	> 100 µM	> 100 µM	2 µM	> 100 µM	> 100 µM	5 µM	> 100 µM	> 100 µM	> 100 µM	> 100 µM	–	–	–
CC(C)(C)c1cc(/C=C/S(=O)(=O)Cc2ccc(Nc3ncnc4ccccc34)cc2)cc(C(C)(C)C)c1O	13 µM	> 100 µM	9 µM	5 µM	1 µM	38 µM	7 µM	3 µM	17 µM	45 µM	> 100 µM	6 µM	–	–	–
O=S(=O)(/C=C/c1ccc(C(F)(F)F)cc1F)Cc1ccc(Nc2ncnc3cc(Cl)ccc23)cc1	> 100 µM	> 100 µM	> 100 µM	> 100 µM	> 100 µM	> 100 µM	> 100 µM	> 100 µM	> 100 µM	> 100 µM	> 100 µM	> 100 µM	–	–	–
O=S(=O)(/C=C/c1ccc(C(F)(F)F)cc1F)Cc1ccc(Nc2ncnc3ccc(Br)cc23)cc1	32 µM	16 µM	55 µM	15 µM	–	30 µM	58 µM	5 µM	100 µM	40 µM	85 µM	22 µM	–	–	–
O=S(=O)(/C=C/c1ccc(Br)cc1)Cc1ccc(Nc2ncnc3ccccc23)cc1	91 µM	0.2 µM	> 100 µM	38 µM	55 µM	> 100 µM	42 µM	1 µM	> 100 µM	> 100 µM	> 100 µM	> 100 µM	–	–	–
N#Cc1ccc(/C=C/S(=O)(=O)Cc2ccc(Nc3ncnc4ccccc34)cc2)cc1	> 100 µM	> 100 µM	> 100 µM	> 100 µM	> 100 µM	> 100 µM	> 100 µM	> 100 µM	> 100 µM	> 100 µM	> 100 µM	> 100 µM	–	–	–
O=S(=O)(/C=C/c1ccc(Cl)cc1Cl)Cc1ccc(Nc2ncnc3cc(Cl)ccc23)cc1	25 µM	8 µM	> 100 µM	> 100 µM	–	53 µM	38 µM	48 µM	59 µM	76 µM	> 100 µM	32 µM	–	–	–
O=S(=O)(/C=C/c1ccc(F)cc1F)Cc1ccc(Nc2ncnc3ccccc23)cc1	> 100 µM	31 µM	86 µM	> 100 µM	–	> 100 µM	> 100 µM	69 µM	> 100 µM	–	> 100 µM	> 100 µM	–	–	–
O=S(=O)(/C=C/c1ccc(F)cc1)Cc1ccc(Nc2ncnc3ccccc23)cc1	16 µM	0.01 µM	100 µM	2 µM	0.3 µM	0.01 µM	1 µM	2 µM	1 µM	13 µM	–	5 µM	0	84%	5%
O=S(=O)(/C=C/c1ccc(O)cc1)Cc1ccc(Nc2ncnc3ccccc23)cc1	100 µM	0.02 µM	100 µM	1 µM	19 µM	0.3 µM	14 µM	14 µM	2 µM	100 µM	–	100 µM	–	–	–

Further lines, with some results ahead:

GI50 (MCF7)	GI50 (ACHN)	GI50 (SW-620)	GI50 (OVCAR-8)	GI50 (DU-145)	GI50 (U-251)	GI50 (PC-3)	GI50 (SK-OV-3)	GI50 (HT-29)	GI50 (NCI-H522 (Homo sapiens))	Structure (SMILES)	GI50 (NCI/ADR-RES)	GI50 (UACC-62)	Mortality (Mus musculus [1])	inhibition in vivo at 300 mg/kg (Mus musculus [2])	Mean body weight (Mus musculus [3])
54 µM	3.4 µM	7 µM	12 µM	1.3 µM	4 µM	5 µM	2.4 µM	4 µM	–	COc1cc2ncnc(Nc3ccc(CS(=O)(=O)/C=C/c4ccc(Cl)cc4Cl)cc3)c2cc1OCCCN1CCOCC1	> 100 µM	23 µM	–	–	–
32 µM	4 µM	5 µM	6 µM	–	11 µM	9.5 µM	50 µM	24 µM	8 µM	COc1cc2ncnc(Nc3ccc(CS(=O)(=O)/C=C/c4ccc(Br)cc4)cc3)c2cc1OC	72 µM	63 µM	–	–	–
100 µM	66 µM	100 µM	48 µM	–	100 µM	100 µM	36 µM	100 µM	100 µM	COc1cc2ncnc(Nc3ccc(CS(=O)(=O)/C=C/c4ccc(F)cc4)cc3)c2cc1OCCN1CCOCC1	–	100 µM	–	–	–
> 100 µM	> 100 µM	> 100 µM	> 100 µM	> 100 µM	> 100 µM	> 100 µM	> 100 µM	> 100 µM	> 100 µM	COc1cc2ncnc(Nc3ccc(CS(=O)(=O)/C=C/c4ccc(F)cc4)cc3)c2cc1OC	> 100 µM	> 100 µM	–	–	–
15 µM	17 µM	> 100 µM	> 100 µM	37 µM	2 µM	73 µM	> 100 µM	> 100 µM	–	O=S(=O)(/C=C/c1ccc(F)cc1Cl)Cc1ccc(Nc2ncnc3cc(Cl)ccc23)cc1	> 100 µM	72 µM	–	–	–
100 µM	8 µM	100 µM	100 µM	–	32 µM	100 µM	2 µM	100 µM	100 µM	O=S(=O)(/C=C/c1ccc(F)cc1F)Cc1ccc(Nc2ncnc3ccc(Br)cc23)cc1	100 µM	3 µM	–	–	–
46 µM	–	45 µM	3 µM	1 µM	30 µM	2 µM	–	> 100 µM	13 µM	O=S(=O)(/C=C/c1ccc(Cl)cc1)Cc1ccc(Nc2ncnc3ccc(Br)cc23)cc1	–	15 µM	–	–	–
3 µM	0.2 µM	> 100 µM	> 100 µM	4 µM	18 µM	28 µM	> 100 µM	> 100 µM	> 100 µM	COc1cc2ncnc(Nc3ccc(CS(=O)(=O)/C=C/c4ccc(F)cc4)cc3)c2cc1OCCCN1CCOCC1	3 µM	55 µM	–	–	–
> 100 µM	> 100 µM	> 100 µM	> 100 µM	> 100 µM	> 100 µM	> 100 µM	> 100 µM	> 100 µM	> 100 µM	O=S(=O)(/C=C/c1ccc(F)cc1F)Cc1ccc(Nc2ncnc3cc(Cl)ccc23)cc1	> 100 µM	> 100 µM	–	–	–

Source: ChEMBL document CHEMBL1146712, “Synthesis and biological evaluation of [4-(2-phenylethenesulfonylmethyl)phenyl]-quinazolin-4-yl-amines as orally active anti-cancer agents” (2004)
